Reference: US8883782B2, “Spiro-tetracyclic ring compounds as beta-secretase modulators and methods of use” (Amgen Inc., priority 2010, dated 2014)
Where two headings read alike, the source gives them in different places.

Key:
[1] = target: Beta Secretase enzyme (BACE) (Homo sapiens, UniProt P56817); test: In vitro enzymatic BACE FRET (fluorescence resonance energy transfer) assay; assay type: biochemical; details: average IC50, enzyme assay; read-out: BACE 1 FRET assay
In short: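 Run in 0.05 M acetate pH 4.2 with 10% DMSO final and 100 uM genapol; started by adding 50 nM FRET peptide substrate (fluorophore and quencher flanking the cleavage site), incubated one hour, then stopped with Tris to neutral pH before reading fluorescence.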

[2] = system: Aβ40 in conditioned medium of cells stably expressing Amyloid Precursor Protein (APP); test: In vitro BACE cell-based assay (Aβ40 in conditioned medium, sandwich ELISA); details: read-out: HEK cell assay
In short: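 Step two: 10-point compound titration added, starting 100 μM or 10 μM, 0.1% DMSO. Step three: medium Aβ40 measured by ELISA, capture 3 h and detection 2 h at 4° C, TRF read.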

[3] = Homo sapiens, HEK293, average IC50
[4] = Homo sapiens, HEK293, average IC50, HEK cells

Sequence of Beta Secretase enzyme (BACE) (P56817 46-501, species assumed): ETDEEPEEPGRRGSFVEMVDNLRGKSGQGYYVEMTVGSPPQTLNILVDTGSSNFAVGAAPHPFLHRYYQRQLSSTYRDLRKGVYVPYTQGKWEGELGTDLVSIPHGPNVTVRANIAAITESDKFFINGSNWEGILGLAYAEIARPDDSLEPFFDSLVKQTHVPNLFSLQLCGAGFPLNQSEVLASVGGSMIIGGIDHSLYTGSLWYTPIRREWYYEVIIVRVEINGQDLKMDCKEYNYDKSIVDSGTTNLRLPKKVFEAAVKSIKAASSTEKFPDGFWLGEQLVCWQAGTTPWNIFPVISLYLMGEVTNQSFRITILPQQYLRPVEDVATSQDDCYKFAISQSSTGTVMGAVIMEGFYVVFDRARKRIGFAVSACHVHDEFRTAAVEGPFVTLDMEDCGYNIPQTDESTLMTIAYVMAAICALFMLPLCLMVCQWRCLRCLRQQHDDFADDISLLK

IC50 [1]	IC50 [2, 3]	IC50 [2, 4]	Compound	IC50 ([2]; average IC50)
0.8 nM	4.7 nM		CC(C)(C#N)COc1cc(F)c2c(c1)[C@]1(COC(N)=N1)c1cc(-c3cncc(C#N)c3)ccc1O2 [Example 265, 5-((4S)-2-amino-7′-(2-cyano-2-methylpropoxy)-5′-fluorospiro[1,3-oxazole-4,9′-xanthen]-2′-yl)-3-pyridinecarbonitrile]	
24.6 nM		547 nM	CC#Cc1cncc(-c2ccc3c(c2)[C@@]2(COC(N)=N2)c2cc(Cl)nc(N4CCC(F)(F)C4)c2O3)c1 [Example 925, (5S)-3-chloro-1-(3,3-difluoro-1-pyrrolidinyl)-7-(5-(1-propyn-1-yl)-3-pyridinyl)spiro[chromeno[2,3-c]pyridine-5,4′-[1,3]oxazol]-2′-amine]	
0.6 nM		8 nM	NC1=N[C@@]2(CO1)c1cc(-c3cccnc3F)ccc1Oc1cnc(N3CCC(F)CC3)cc12 [Example 436, (5S)-3-(4-fluoro-1-piperidinyl)-7-(2-fluoro-3-pyridinyl)spiro[chromeno[2,3-c]pyridine-5,4′-[1,3]oxazol]-2′-amine]	
1.2 nM		23 nM	NC1=N[C@@]2(CO1)c1cc(-c3cccnc3F)ccc1Oc1c(F)cc(-c3ccc(F)nc3)cc12 [Example 640, (4S)-4′-fluoro-7′-(2-fluoro-3-pyridinyl)-2′-(6-fluoro-3-pyridinyl)spiro[1,3-oxazole-4,9′-xanthen]-2-amine]	
2.8 nM	54 nM		N#Cc1cccc(-c2ccc3c(c2)[C@@]2(CSC(N)=N2)c2cc(C4=CCCOC4)cnc2O3)c1F [Example 778, 3-((5S)-2′-amino-3-(5,6-dihydro-2H-pyran-3-yl)spiro[chromeno[2,3-b]pyridine-5,4′-[1,3]thiazol]-7-yl)-2-fluorobenzonitrile]	
68.2 nM		228 nM	COC(C)(C)C#Cc1cnc2c(c1)[C@@]1(COC(N)=N1)c1cc(-c3cncnc3)c(F)cc1O2 [Example 644, (5R)-8-fluoro-3-(3-methoxy-3-methyl-1-butyn-1-yl)-7-(5-pyrimidinyl)spiro[chromeno[2,3-b]pyridine-5,4′-[1,3]oxazol]-2′-amine]	
0.4 nM	10 nM		NC1=N[C@@]2(CO1)c1cc(-c3cncnc3)c(F)cc1Oc1c(F)cc(C3=CCOCC3)cc12 [Example 1038, (4S)-7′-(3,6-dihydro-2H-pyran-4-yl)-3′,5′-difluoro-2′-(5-pyrimidinyl)spiro[1,3-oxazole-4,9′-xanthen]-2-amine]	
2.4 nM		7.7 nM	NC1=N[C@@]2(CO1)c1cc(-c3cncc(F)c3)ccc1Oc1c(F)cc(C3CCOCC3)cc12 [Example 448, (4S)-4′-fluoro-7′-(5-fluoro-3-pyridinyl)-2′-(tetrahydro-2H-pyran-4-yl)spiro[1,3-oxazole-4,9′-xanthen]-2-amine]	
5540 nM		10000 nM	NC1=N[C@]2(CO1)c1cc(-c3ccnc(F)c3)ccc1Oc1cnc(Cl)cc12 [Example 392, (5R)-3-chloro-7-(2-fluoro-4-pyridinyl)spiro[chromeno[2,3-c]pyridine-5,4′-[1,3]oxazol]-2′-amine]	
2.8 nM	14.6 nM		CC(C)(C#N)COc1cc(F)c2c(c1)[C@]1(COC(N)=N1)c1cc(-c3cnccn3)ccc1O2 [Example 93, (S)-3-(2-amino-5′-fluoro-2′-(pyrazin-2-yl)-5H-spiro[oxazole-4,9′-xanthene]-7′-yloxy)-2,2-dimethylpropanenitrile]	
53.1 nM		291 nM	NC1=N[C@]2(CO1)c1cc(-c3cnccc3F)c(F)cc1Oc1ncc(C3=CCOCC3)cc12 [Example 645, (5R)-3-(3,6-dihydro-2H-pyran-4-yl)-8-fluoro-7-(4-fluoro-3-pyridinyl)spiro[chromeno[2,3-b]pyridine-5,4′-[1,3]oxazol]-2′-amine]	
24.6 nM	314 nM		COc1cccc(COc2ccc3c(c2)[C@@]2(COC(N)=N2)c2cc(-c4cccnc4)cnc2O3)c1 [Example 983, (5S)-7-((3-methoxybenzyl)oxy)-3-(3-pyridinyl)spiro[chromeno[2,3-b]pyridine-5,4′-[1,3]oxazol]-2′-amine]	
6.1 nM		13 nM	Cc1ccncc1-c1ccc2c(c1)[C@@]1(COC(N)=N1)c1cc(C3=CCOCC3)ncc1O2 [Example 654, (5S)-3-(3,6-dihydro-2H-pyran-4-yl)-7-(4-methyl-3-pyridinyl)spiro[chromeno[2,3-c]pyridine-5,4′-[1,3]oxazol]-2′-amine]	
0.9 nM	13.9 nM		Cn1cc(-c2cnc3c(c2)[C@]2(COC(N)=N2)c2c(ccc(-c4cccnc4F)c2F)O3)cn1 [Example 356, (5R)-6-fluoro-7-(2-fluoro-3-pyridinyl)-3-(1-methyl-1H-pyrazol-4-yl)spiro[chromeno[2,3-b]pyridine-5,4′-[1,3]oxazol]-2′-amine]	
0.8 nM	12 nM		Cc1cc(-c2cc3c(c(F)n2)Oc2ccc(-c4cccnc4F)cc2[C@@]32COC(N)=N2)ccn1 [Example 744, (5S)-1-fluoro-7-(2-fluoro-3-pyridinyl)-3-(2-methyl-4-pyridinyl)spiro[chromeno[2,3-c]pyridine-5,4′-[1,3]oxazol]-2′-amine]	
0.5 nM		26.6 nM	NC1=N[C@@]2(CO1)c1cc(-c3cccnc3F)ccc1Oc1cnc(-c3ccc(F)c(F)c3)cc12 [Example 534, (5S)-3-(3,4-difluorophenyl)-7-(2-fluoro-3-pyridinyl)spiro[chromeno[2,3-c]pyridine-5,4′-[1,3]oxazol]-2′-amine]	
5.6 nM	77 nM		NC1=NC2(CO1)c1cc(-c3cccnc3)ccc1Oc1c2cc(C2CCOCC2)nc1F (stereo not shown) [Example 752, 1-fluoro-7-(3-pyridinyl)-3-(tetrahydro-2H-pyran-4-yl)spiro[chromeno[2,3-c]pyridine-5,4′-[1,3]oxazol]-2′-amine]	
10.3 nM	79 nM		NC1=N[C@]2(CO1)c1cc(N3CC[C@@H](F)C3)cc(F)c1Oc1ccc(-c3cccnc3F)c(F)c12 [Example 1053, (4R)-1′,5′-difluoro-2′-(2-fluoro-3-pyridinyl)-7′-((3R)-3-fluoro-1-pyrrolidinyl)spiro[1,3-oxazole-4,9′-xanthen]-2-amine]	
0.4 nM		5 nM	CC1(COc2cc(F)c3c(c2)[C@]2(CSC(N)=N2)c2cc(-c4cccnc4F)c(F)cc2O3)COC1 [Example 885, (4S)-3′,5′-difluoro-2′-(2-fluoro-3-pyridinyl)-7′-((3-methyl-3-oxetanyl)methoxy)spiro[1,3-thiazole-4,9′-xanthen]-2-amine]	
4.3 nM		128 nM	COCC1SC(N)=N[C@@]12c1cc(-c3cccnc3F)ccc1Oc1cnc(-c3ccnc(F)c3)cc12 (stereo partly drawn) [Example 1094, (5R)-7-(2-fluoro-3-pyridinyl)-3-(2-fluoro-4-pyridinyl)-5′-(methoxymethyl)spiro[chromeno[2,3-c]pyridine-5,4′-[1,3]thiazol]-2′-amine]	
2.8 nM	18.7 nM		NC1=N[C@@]2(CO1)c1cc(-c3cccnc3F)ccc1Oc1c(F)cc(-c3cncnc3)cc12 [Example 214, (4S)-4′-fluoro-7′-(2-fluoro-3-pyridinyl)-2′-(5-pyrimidinyl)spiro[1,3-oxazole-4,9′-xanthen]-2-amine]	
0.8 nM			(6R)-4-((4S)-2-amino-4′-fluoro-7′-(2-fluoro-3-pyridinyl)spiro[1,3-oxazole-4,9′-xanthen]-2′-yl)-6-methyl-5,6-dihydro-2H-pyran-2-one, (6S)-4-((4S)-2-amino-4′-fluoro-7′-(2-fluoro-3-pyridinyl)spiro[1,3-oxazole-4,9′-xanthen]-2′-yl)-6-methyl-5,6-dihydro-2H-pyran-2-one [Example 803]	15 nM
9.7 nM	108 nM		CC(C)(C)C#Cc1ccc2c(c1)[C@@]1(COC(N)=N1)c1cc(C3=CCOCC3)ncc1O2 [Example 161, (5S)-3-(3,6-dihydro-2H-pyran-4-yl)-7-(3,3-dimethyl-1-butyn-1-yl)spiro[chromeno[2,3-c]pyridine-5,4′-[1,3]oxazol]-2′-amine]	
1.5 nM	18 nM		NC1=N[C@@]2(CS1)c1cc(-c3cccnc3)ccc1Oc1c(F)cc(N3CCOCC3)cc12 [Example 799, (4S)-4′-fluoro-2′-(4-morpholinyl)-7′-(3-pyridinyl)spiro[1,3-thiazole-4,9′-xanthen]-2-amine]	
134 nM	≥ 10000 nM		COc1nc(Cl)cc2c1Oc1ccc(-c3cccnc3F)cc1[C@@]21COC(N)=N1 [Example 828, (5S)-3-chloro-7-(2-fluoro-3-pyridinyl)-1-methoxyspiro[chromeno[2,3-c]pyridine-5,4′-[1,3]oxazol]-2′-amine]	
1230 nM		≥ 10000 nM	NC1=N[C@]2(CS1)c1cc(-c3cccnc3F)c(F)cc1Oc1c(F)cc(N3CCOCC3)cc12 [Example 880, (4R)-3′,5′-difluoro-2′-(2-fluoro-3-pyridinyl)-7′-(4-morpholinyl)spiro[1,3-thiazole-4,9′-xanthen]-2-amine]	
73.2 nM	687 nM		Cc1cccc(Oc2ccc3c(c2)[C@@]2(COC(N)=N2)c2cc(N4CCOCC4)cc(F)c2O3)n1 [Example 1057, (4S)-4′-fluoro-7′-((6-methyl-2-pyridinyl)oxy)-2′-(4-morpholinyl)spiro[1,3-oxazole-4,9′-xanthen]-2-amine]	
0.6 nM	8.2 nM		NC1=N[C@@]2(CO1)c1cc(-c3cncc(Cl)c3)ccc1Oc1c(F)cc(OCC3CCOCC3)cc12 [Example 211, (4S)-7′-(5-chloro-3-pyridinyl)-4′-fluoro-2′-(tetrahydro-2H-pyran-4-ylmethoxy)spiro[1,3-oxazole-4,9′-xanthen]-2-amine]	

Compound	IC50 [1]	IC50 [2, 3]	IC50 [2, 4]	IC50 ([2]; average IC50)
(4S)-2′-(2-chloro-4-pyrimidinyl)-4′-fluoro-7′-(2-fluoro-3-pyridinyl)spiro[1,3-oxazole-4,9′-xanthen]-2-amine [Example 221]	0.7 nM			129 nM
